“Also recorded” adds a separate entry of the source. Read-outs that look alike come from different tables or passages of the source. Starred links: 1 amine or outer side, 2 acyl side, 3 side chain; linkers in the order of their positions; H or OH if unused. Positions of bridges follow the written chain, without caps; N, C: chain ends. Non-standard residues stand in square brackets, D forms with d. Residues, ends and D or L forms follow the SMILES beside them. Chains are numbered I, II in the order given. Actinocin(9to1) = Cc1c2oc3c(C)ccc(C(=O)[*:1])c3nc-2c(C(=O)[*:2])c(N)c1=O; NMeV = CN[C@H](C(=O)O)C(C)C; Nle = CCCC[C@H](N)C(=O)O; Sar = CNCC(=O)O
Experiments:
ERCC1 = conditions: A2780-CP70; cited from earlier work
OPN promoter = OPN promoter luciferase reporter assay in metastatic melanoma cell lines; assay type: cell-based, human; conditions: MCC012A and MCC012F cell lines; tomatidine
Description: Empty pGL3 vector was used as control. […] Readings were normalized to total protein content. Each parameter was studied in triplicate and the experiment repeated at least 3 times. The data are represented as percent luciferase activity, which was derived as a percent of the relative light units in treated groups compared with the untreated groups.

c-jun [1] = assay: c-jun and c-fos protein expression and c-jun phosphorylation in A2780-CP70 cells (Western blot); assay type: cell-based, human; conditions: IC50 dose of cisplatin
Experimental: c-jun protein expression was assessed in cisplatin-treated A2780-CP70 cells using Western blot analysis.
Protein expression of c-fos and phosphorylation of c-jun in cyclopamine-treated A2780-CP70 cells was assessed using Western blot analysis. Protein levels for c-jun, c-fos, phosphorylated c-jun (Ser 63), phosphorylated c-jun (Ser 73), and phosphorylated c-jun (Thr 91, Thr 93) were tested in cytosolic, nuclear, and whole cell fractions at 0 hr, 6 hr, 24 hr, 48 hr, and 72 hr. Internal controls for cytosolic and nuclear fractions included α-tubulin and histone deacetylase 3.
Phosphorylation of c-jun in A2780-CP70 cells transfected with anti-GLI1 shRNA construct was assessed using Western blot analysis. Protein levels for c-jun, phosphorylated c-jun (Ser 63), phosphorylated c-jun (Ser 73), and phosphorylated c-jun (Thr 91, Thr 93) were examined at 0 hr, 6 hr, 24 hr, 48 hr, and 72 hr.

ERCC1, XPD, XRCC1 [2] = assay: ERCC1, XPD and XRCC1 mRNA levels in A2780-CP70 cells (semi-quantitative PCR); assay type: cell-based, human; conditions: cells treated with cisplatin
A2780-CP70 cells [3] = conditions: A2780-CP70, cisplatin-resistant; cited from earlier work
c-jun [4] = conditions: cited from earlier work
ERCC1, XPD, XRCC1 [5] = conditions: cited from earlier work; for ERCC1, XPD, or XRCC1 regulation: previous experiments, agents at IC50 doses
A2780-CP70 cells [6] = assay: Cisplatin sensitivity of A2780-CP70 cells (percent cell growth); conditions: read-out: IC50 of cisplatin
Experimental: Controls included α-tubulin and histone deactylase.
Transfected cells were treated with 0 μM, 2 μM, 5 μM, 10 μM, 30 μM, and 50 μM cisplatin at 24 hr post-transfection.

[7] = system: MDA-MB-435 (435) and SUM1315 (1315) cells; assay: Drug sensitivity of cells transfected with shRNA to GLI1 (MTS assay); assay type: cell-based, human; conditions: cells transfected with shRNA to GLI1 vs empty vector; 24 hours
Experimental: MDA-MB-435 (435) and SUM1315 (1315) cells were transfected with either empty vector (vec) or with vector encoding shRNA to GLI1 (shGLI1). Cells were treated with the indicated concentrations of drugs for 24 hours and viability was assessed using an MTS assay (FIG. 62A-FIG. 62C). […] Using real-time quantitative RT-PCR the GLI1 shRNA brings about a decrease of about 50% in the expression of ABCB1 (MDR1) and 90% decrease in ABCG2 (BCRP).

[8] = system: GLI1-knocked down MDA-MB-435 cells; assay: Migration, invasion and motility of GLI1-knocked down cells with OPN add-back; assay type: cell-based, human
Experimental: Motility Assay—These experiments were performed as previously described (Shevde, L. A., et al. (2006) Clin. Exp. Metastasis 23, 123-133). Images were acquired at T0, the reading at the initial time, and at T10 (10 h later). The experiment was conducted in duplicate and cell motility was calculated as (T0−T10)/T0, which represents the rate of movement over a 10-h period. For OPN add-back experiments the cells were pretreated for 12 h with 100 ng/ml human OPN (recombinant R & D Systems) and the assay conducted in the presence of OPN. Each experimental group was assessed in duplicate and data were recorded in three fields per well. Thus, six data points were recorded and analyzed per experimental group.
Invasion and Migration Assays—These experiments were performed as previously outlined (18) using a modified Boyden chamber assay. OPN add-back experiments for migration and invasion were conducted as described above with an additional step of pre-treating the cells for 24 h with rOPN. OPN was added to the upper and lower chambers (100 ng/ml) to ensure the OPN was present during the entire duration of the experiment. Each experimental group was assessed as three independent replicates.

RAW264.7 cells [9] = assay: Osteoclast differentiation (TRAP assay); assay type: cell-based, murine; conditions: DM supplemented with OPN (100 ng/ml) or SHH (100 nM) vs DM
Experimental: Cell lines—Human metastatic breast cancer cells, MDA-MB-231, were cultured in Dulbecco's Modified Eagle's Medium (DMEM/F12; Invitrogen, Carlsbad, Calif.), supplemented with 2 mM L-glutamine, 1 mM sodium pyruvate, 0.02 mM non-essential amino acids, 5% fetal bovine serum, FBS (Atlanta Biologicals, Norcross, Ga.), without antibiotics or antimycotics (cDME/F12). SUM1315 and SUM159 cells (DiMeo, T. A., et al. (2009) Cancer Res 69, 5364-5373) (Asterand, Detroit, Mich.) were cultured in DMEM/F12 supplemented with […], 5% FBS (Atlanta Biologicals) and either 10 ng/ml EGF or 1 ng/ml hydrocortisone, without antibiotics or antimycotics. The SUM1315 cells are derived from a metastasis in a patient with infiltrating ductal carcinoma; SUM159 cells were derived from a primary breast tumor with metaplastic carcinoma. RAW264.7 (ATCC, TIB 71) cells, a murine pre-osteoclastic line capable of differentiation and […] in culture (in presence of RANKL and MCSF), were grown in DMEM with L-glutamine (ATCC, 30-2002) supplemented with 10% FBS. A 2× differentiation medium (DM) was formulated for the RAW 264.7 cells comprising RAW264.7 growth medium supplemented with 20% FBS, RANKL (100 ng/ml) and M-CSF (40 ng/ml) (Matsubara, T., et al. J Bone Miner Res 25, 1068-1076). Conditioned media was harvested from breast cancer cells and mixed in a 1:1 ratio with double strength differentiation medium to assess the effect on osteoclast differentiation. 1×DM was used as control or wherever SHH (R & D Systems, Minneapolis, Minn.) or OPN (R & D Systems) was used alone. The medium on the RAW264.7 cells was replenished every 48 hours. In order to assess the effect of secreted Hh ligands, the neutralizing 5E1 antibody was used (Developmental Studies Hybridoma Bank, at the University of Iowa, Iowa). […] Medium was supplemented with 5E1 (2.5 μg/ml) and was changed on alternate days until the end of the experiment. The effect of OPN on osteoclast activity was assessed by transfecting an OPN shRNA-expressing construct on day 6 post-induction of differentiation. Fresh DM was added the following day and cells were allowed to grow for another 12 hours before termination of experiment. GLI1 expression was silenced in the SUM1315 cells using shRNA targeting GLI1 into pSuperior. gfp+neo (Oligoengine, WA, USA). Silencing of OPN expression was done using OPN-targeting shRNA cloned into pSuper (Oligoengine)
Osteoclast differentiation and activity assays—Tartarate-resistant acid phosphatase (TRAP) assay was conducted for RAW 264.7 following the manufacturer's protocol (Sigma, St. Louis, Mo.). This assay was indicative of the extent of differentiation. […] The percentage of area resorbed was calculated using the NIS-Elements BR. […]

RAW264.7 cells [10] = assay: Osteoclast resorption activity (OAAS plates); assay type: cell-based, murine; conditions: DM with OPN (100 ng/ml) or SHH (100 nM)
Experimental: Osteoclast differentiation and activity assays—Tartarate-resistant acid phosphatase (TRAP) assay was conducted for RAW 264.7 following the manufacturer's protocol (Sigma, St. Louis, Mo.). This assay was indicative of the extent of differentiation. OAAS plates (Osteogenic Core Technologies, Choongnam, Republic of Korea) were utilized to measure osteoclastic activity. RAW 264.7 cells (25×103) were inoculated in 48-well plates. Cells were treated with serum-free conditioned media from breast cancer cells or 100 nM SHH or 100 ng/ml OPN on the following day. Media was changed every two days and the experiments were terminated either on day 6 (day 7 for knockdown experiments, with transfections being done on the sixth day). At the completion, cells were detached with 5% sodium hypochlorite and the wells were observed under a Nikon Eclipse TS 100 microscope at 10× magnification. […] The percentage of area resorbed was calculated using the NIS-Elements BR. 3.1 software.

Molecule: CC[C@H](C)[C@@H]1NC(=O)CNC(=O)[C@@H]2Cc3c([nH]c4cc(O)ccc34)[S+]([O-])C[C@@H](NC(=O)CNC1=O)C(=O)N[C@@H](CC(N)=O)C(=O)N1C[C@H](O)C[C@H]1C(=O)N[C@@H]([C@@H](C)[C@@H](O)CO)C(=O)N2 (stereo in doubt) [α-amanitin]
- ERCC1 up-regulation after cisplatin exposure (ERCC1): blunted ERCC1 up-regulation

Molecule: CCCC[C@@H](C=O)NC(=O)[C@H](CC(C)C)NC(=O)[C@H](CC(C)C)NC(C)=O [N-acetyl-leucyl-leucyl-norleucinal] (Ac-Leu-Leu-[Nle]-aldehyde)
- ERCC1 up-regulation after cisplatin exposure (ERCC1): blunted ERCC1 up-regulation

Molecule: Cc1cc(C)c(/C=C2\C(=O)Nc3ccccc32)[nH]1 [SU5416]
- ERCC1 up-regulation after cisplatin exposure (ERCC1): blunted ERCC1 up-regulation

Molecule: C[C@H]1CC[C@]2(NC1)O[C@H]1C[C@H]3[C@@H]4CC[C@H]5C[C@@H](O)CC[C@]5(C)[C@H]4CC[C@]3(C)[C@H]1[C@@H]2C [Tomatidine, tomatidine]
- promoter activity of OPN (OPN promoter): no effect

Molecule: Cc1c2oc3c(C)ccc(C(=O)N[C@@H]4C(=O)N[C@H](C(C)C)C(=O)N5CCC[C@H]5C(=O)N(C)CC(=O)N(C)[C@@H](C(C)C)C(=O)O[C@@H]4C)c3nc-2c(C(=O)N[C@@H]2C(=O)N[C@H](C(C)C)C(=O)N3CCC[C@H]3C(=O)N(C)CC(=O)N(C)[C@@H](C(C)C)C(=O)O[C@@H]2C)c(N)c1=O [actinomycin D] (I: T[dV]P[Sar][NMeV] / II: T[dV]P[Sar][NMeV]; ester I:1-I:C, II:1-II:C; linker I:N-II:N via Actinocin(9to1))
- ERCC1 up-regulation after cisplatin exposure (ERCC1): blunted ERCC1 up-regulation

Molecule: [Cr] [chromium]
- ERCC1 up-regulation after cisplatin exposure (ERCC1): blunted ERCC1 up-regulation

Molecule: N.N.[Cl][Pt][Cl] [cisplatin]
- c-jun protein expression (c-jun [1]): increased substantial between 0-6 hr
- expression levels of ERCC1, XPD, and XRCC1 proteins, increase (ERCC1, XPD, XRCC1 [2]): 5 fold
- IC50 (A2780-CP70 cells [3]): ~40 µM
- phosphorylation of c-jun protein, peak over baseline (c-jun [4]; 3-5 hr after cisplatin treatment): 15 fold
- time of peak c-jun (Ser 63/73) protein levels (c-jun [4]; after cisplatin exposure): 3 to 5 h
- expected increase in ERCC1 mRNA levels (ERCC1, XPD, XRCC1 [5]; cells treated with cisplatin only): 6 fold
- ERCC1 mRNA half-life (ERCC1, XPD, XRCC1 [5]; cisplatin-treated cells (14 hr in untreated cells)): 24 h
- ERCC1, XPD, or XRCC1 regulation (ERCC1, XPD, XRCC1 [5]): up-regulated
- IC50 (A2780-CP70 cells [6]; cells transfected with 0.07 μg/well anti-Gli1 shRNA construct, cisplatin at 24 hr post-transfection): 8 µM
- IC50 (A2780-CP70 cells [6]; control cells): 28 µM

Molecule: C[C@@H]1C[C@@H]([C@H](O)CC2CC(=O)NC(=O)C2)C(=O)[C@@H](C)C1 [cycloheximide]
- ERCC1 up-regulation after cisplatin exposure (ERCC1): blunted ERCC1 up-regulation

Molecule: COc1cccc2c1C(=O)c1c(O)c3c(c(O)c1C2=O)C[C@@](O)(C(=O)CO)C[C@@H]3O[C@H]1C[C@H](N)[C@H](O)[C@H](C)O1 [doxorubicin]
- sensitivity to drug (viability, MTS assay) [7]: increased sensitivity

Molecule: CO[C@H]1[C@@H](OC)C[C@H](C)[C@@H](OC)C2=CC(=O)C=C(NC(=O)/C(C)=C/C=C\[C@H](OC)[C@@H](OC(N)=O)/C(C)=C/[C@@H]1C)C2=O [herbimycin A]
- ERCC1 up-regulation after cisplatin exposure (ERCC1): blunted ERCC1 up-regulation

Molecule: CC(=O)N[C@@H](CSC(=O)[C@]1([C@@H](O)C(C)C)NC(=O)[C@H](C)[C@@H]1O)C(=O)O [lactacystin]
- ERCC1 up-regulation after cisplatin exposure (ERCC1): blunted ERCC1 up-regulation

Molecule: CCCCCCCCCCCCCC(=O)O[C@@H]1[C@@H](C)[C@@]2(O)[C@@H](C=C(CO)C[C@]3(O)C(=O)C(C)=C[C@@H]23)[C@@H]2C(C)(C)[C@]12OC(C)=O [phorbol ester]
- ERCC1, XPD, or XRCC1 regulation (ERCC1, XPD, XRCC1 [5]): up-regulated

Molecule: [Pt] [platinum]
- ERCC1 up-regulation after cisplatin exposure (ERCC1): blunted ERCC1 up-regulation

Molecule: CC(=O)O[C@H]1C(=O)[C@@]2(C)[C@H]([C@H](OC(=O)c3ccccc3)[C@]3(O)C[C@H](OC(=O)[C@H](O)[C@@H](NC(=O)c4ccccc4)c4ccccc4)C(C)=C1C3(C)C)[C@]1(OC(C)=O)CO[C@@H]1C[C@@H]2O [taxol]
- sensitivity to drug (viability, MTS assay) [7]: increased sensitivity

Molecule: OPN: recombinant human osteopontin (R & D Systems)
- cell motility (wound healing assay) ([8]; KO1 and KO4 cells in presence of recombinant OPN): restored
- cell invasion through Matrigel ([8]; KO1 and KO4 cells, OPN 100 ng/ml vs untreated): significantly larger numbers
- cell migration ([8]; KO1 and KO4 cells, OPN 100 ng/ml vs untreated, modified Boyden chamber): significantly larger numbers
- numbers of multinucleate TRAP-positive cells (RAW264.7 cells [9]): stimulate osteoclast differentiation; also recorded: significantly (* indicates p<0.005) increases
- resorption activity of differentiated osteoclasts (RAW264.7 cells [10]): significantly (* indicates p<0.001) increases the resorption activity

B1: interleukin 1-α (protein, UniProt P01583 113-271, looked up)
Interleukin-1 alpha: SAPFSFLSNVKYNFMRIIKYEFILNDALNQSIIRANDQYLTAAALHNLDEAVKFDMGAYKSSKDDAKITVILRISKTQLYVTAQDEDQPVLLKEMPEIPKTITGSETNLLFFWETHGTKNYFTSVAHPNLFIATKQDYWVCLAGGPPSITDFQILENQA
- ERCC1 up-regulation after cisplatin exposure (ERCC1): blunted ERCC1 up-regulation

Source: patent US9540647B2, “Methods and compositions for the treatment of cancer” (University of South Alabama, priority 2010, dated 2017)
